Key:
Assay type in all cases: in vivo
Conditions in all cases: 20 days after
[1] = system: phytopathogenic Fusarium (Fusarium sp.); assay: Test Example 23: soybean seed treatment, Fusarium pot test
Protocol: (§1) If the effect by the combination of two active ingredients is greater than that of the estimated value E, which is calculated by the Colby's equation as follows, the effect is regarded as synergistic. E=X+Y−X·Y/100 wherein, E=Control value when using the mixture of the active ingredients A and B at the concentrations m and n (amount of the active ingredient), respectively. X=Control value when using the active ingredient A at the concentration m (amount of the active ingredient). Y=Control value when using the active ingredient B at the concentration n (amount of the active ingredient).
Boscalid was dissolved in acetone/Tween 20 (weight ratio=95:5) to prepare a chemical liquid. In a rotary seed treatment machine (trade name: HEGE11, manufactured by WINTERSTEIGER), soybean seeds (variety:“Hatayutaka”) were treated by smearing treatment using the chemical liquid and the flowable formulation of the present bacterial strain obtained in Formulation Example 13 and sedaxane flowable formulation (43.7% flowable formulation, trade name: Vibrance, Syngenta Crop Protection LLC), so that the soybean seeds retain the bacteria, sedaxane and boscalid in the amount shown in Table 8.
Cultivation was carried out in a greenhouse under irrigation (“treated compartment”). The plants were investigated 20 days after for the number of diseased plants, and the disease incidence was calculated by the following “Equation 1”. Also, similar procedures were conducted using untreated soybean seeds, instead of the treated soybean seeds, as described above for the treated compartment (“untreated compartment”).
The plants were investigated 20 days after for the number of diseased plants, and the disease incidence was calculated by the following “Equation 1”. The control value of the treated compartment was calculated by the following equation “Equation 2”, based on the disease incidences of the treated compartment and the untreated compartment. Disease incidence (%)=100×(number of diseased plant/total number of seeded seeds): Equation 1 Control value (%)=100×[(disease incidence in untreated compartment−disease incidence in treated compartment)/disease incidence in untreated compartment]: Equation 2

[2] = system: phytopathogenic Fusarium (Fusarium sp.); assay: Test Example 22: soybean seed treatment, Fusarium pot test
Protocol: If the effect by the combination of two active ingredients is greater than that of the estimated value E, which is calculated by the Colby's equation as follows, the effect is regarded as synergistic. E=X+Y−X·Y/100 wherein, E=Control value when using the mixture of the active ingredients A and B at the concentrations m and n (amount of the active ingredient), respectively. X=Control value when using the active ingredient A at the concentration m (amount of the active ingredient). Y=Control value when using the active ingredient B at the concentration n (amount of the active ingredient). […]
Cultivation was carried out in a greenhouse under irrigation (“treated compartment”). The plants were investigated 20 days after for the number of diseased plants, and the disease incidence was calculated by the following “Equation 1”. […] The plants were investigated 20 days after for the number of diseased plants, and the disease incidence was calculated by the following “Equation 1”. The control value of the treated compartment was calculated by the following equation “Equation 2”, based on the disease incidences of the treated compartment and the untreated compartment. […]

[3] = system: damping-off fungus (Rhizoctonia solani); assay: Test Example 21: corn seed treatment, damping-off pot test
Protocol: A chemical liquid wherein penflufen is dissolved in acetone/Tween 20 (weight ratio=95:5) and a chemical liquid wherein fluxapyroxad is dissolved in acetone/Tween 20 (weight ratio=95:5) were prepared independently. In a rotary seed treatment machine (trade name: HEGE11, manufactured by WINTERSTEIGER), corn seeds (variety: yellow dent corn) were treated by smearing treatment using one of these chemical liquid and the flowable formulation of the present bacterial strain obtained in Formulation Example 13, so that the corn seeds retain the present bacterial strain and/or the compound in the amount shown in Table 6.
Cultivation was carried out in a greenhouse under irrigation (“treated compartment”). The plants were investigated 20 days after for the number of diseased plants, and the disease incidence was calculated by the following “Equation 1”. Similar procedures were conducted using untreated corn seeds, instead of the treated corn seeds, as described above for the treated compartment (“untreated compartment”). The plants were investigated 20 days after for the number of diseased plants, and the disease incidence was calculated by the following “Equation 1”. The control value of the treated compartment was calculated by the following equation “Equation 2”, based on the disease incidences of the treated compartment and the untreated compartment. Disease incidence (%)=100×(number of diseased plant/total number of seeded seeds): Equation 1 Control value (%)=100×[(disease incidence in untreated compartment−disease incidence in treated compartment)/disease incidence in untreated compartment]: Equation 2
as §1

[4] = soybean seeds retaining 0.05 g/Kg seeds of compound alone
[5] = corn seeds retaining 0.005 g/Kg seeds of compound alone

## O=C(Nc1ccccc1-c1ccc(Cl)cc1)c1cccnc1Cl [Boscalid, boscalid]
[1]; [4]
  Controlling Effect: 23%
[1]; soybean seeds retaining 0.1 g/Kg seeds of compound alone
  Controlling Effect: 47%

## O=C(NCCc1ncc(C(F)(F)F)cc1Cl)c1ccccc1C(F)(F)F [Fluopyram, fluopyram]
[2]; soybean seeds retaining 0.025 g/Kg seeds of compound alone
  Controlling Effect: 29%
[2]; [4]
  Controlling Effect: 44%

## Cn1cc(C(=O)Nc2ccccc2-c2cc(F)c(F)c(F)c2)c(C(F)F)n1 [Fluxapyroxad, fluxapyroxad]
[3]; corn seeds retaining 0.0025 g/Kg seeds of compound alone
  Controlling Effect: 31%
[3]; [5]
  Controlling Effect: 39%

## Cc1nn(C)c(F)c1C(=O)Nc1ccccc1C(C)CC(C)C (stereo not shown) [Penflufen, penflufen]
[3]; [5]
  Controlling Effect: 25%
[3]; corn seeds retaining 0.01 g/Kg seeds of compound alone
  Controlling Effect: 42%

## Cn1cc(C(=O)Nc2ccccc2C2CC2C2CC2)c(C(F)F)n1 (stereo not shown) [Sedaxane, sedaxane]
[1]; soybean seeds retaining 0.005 g/Kg seeds of compound alone
  Controlling Effect: 32%
[1]; soybean seeds retaining 0.01 g/Kg seeds of compound alone
  Controlling Effect: 35%

Source: patent US10463048B2, “Plant disease control composition and plant disease control method” (SUMITOMO CHEMICAL COMPANY, LIMITED, priority 2015, dated 2019)
